Results from patent US20240002846A1, “COMPOSITIONS AND METHODS FOR THE DIAGNOSIS AND TREATMENT OF ITCH” (Duke University, priority 2020, published 2024).
“Also recorded” adds a separate entry of the source.

Legend:
rTRPV4 = rTRPV4 (Rattus norvegicus, UniProt Q9ERZ8); assay: In vitro interaction (overlay) assay LPC-TRPV4; type: binding; parameters: made in house; host or cells: HEK293 cells, surface proteins isolated with Pierce Cell Surface Isolation kit; conditions: 200 pmol per spot
Description: In vitro interaction assays of LPC-TRPV4. Surface proteins were obtained from HEK293 cells transiently expressing rTRPV4-EGFP channels using the Pierce Cell Surface Isolation kit (Pierce Biotechnology, Rockford, IL) following the manufacturer's instructions. Overlay assays were performed as previously described (Morales-Lazaro et al. Nat. Commun. 2016, 7, 13092). In brief, LPC 18:1 was spotted (200 pmol per spot) onto a nitrocellulose membrane (GE Healthcare, Pittsburgh, PA) and then blocked with 1% fatty acid-free BSA (Calbiochem) and 6% fat-free dried milk in PBS. Membranes were then incubated with the surface protein solutions and exposed to anti-GFP antibody (Sigma, St. Louis, MO) diluted 1:1000 in 3% fat-free dried milk in PBST (with 0.1% of Tween). Membranes were incubated with horseradish peroxidase-conjugated secondary anti-rabbit antibody (Cell Signaling Technology) diluted 1:7500 in 6% fat-free dried milk in PBST. The binding of rTRPV4-EGFP and TRPV4-R746D-EGFP to the lipid-containing spots was visualized by chemiluminescence by exposing the blot for 15 min (Amersham Bioscience, Piscataway, NJ). Semi-quantitative densitometric analysis was done using ImageJ (NIH) and expressed as relative protein levels of TRPV4 bound to each spot.

[1] = tested on: vesicular release from mKC; assay: Vesicular release from cultured mouse keratinocytes (AChE activity); type: cell-based; conditions: 10 μM
Description: Vesicular release from cultured keratinocytes was quantified by detecting acetylcholinesterase (AChE) activity in the extracellular release fluid. (Gupta et al. Am. J. Physiol. Heart Circ. Physiol. 2007, 292, H3052-3056; Malik et al. Methods Mol. Biol. 2016, 1448, 237-248). CBQCA Protein Quantitation Kit (Molecular Probes, Eugene, OR) was used to assess the total protein amounts of each sample. Quantitation was carried out according to kit instructions (Fluorocet, Systems Biosciences, Palo Alto, CA). Briefly, vesicles were lysed to release esterase enzyme whose activity is measured using a florescence dye, excitation at 544 nm and emission at 590 nm. Fluostar Optima (BMG Labtech, Cary, NC) microplate reader was used to measure esterase activity. 500 ng protein equivalent of input was used per well. To determine the contribution of Rab5a and Rab27a to LPC-induced miR-146a release, cells were pre-treated with the Rab5a (5′-GUAGAAUCAA GUUUCUAAUUCUGAA-3′ SEQ ID NO: 9, 5′-[…]-3′ SEQ ID NO: 10) or Rab27a (5′-AGCUAAAA CUGAGAGCUUCAAACAG-3′ SEQ ID NO: 11, 5′-[…]-3′ SEQ ID NO: 12) siRNA (IDT, Coralville, IA) for 72 h before stimulation. Control cells were treated with scramble siRNA.

mouse keratinocytes = assay: Ca2+ imaging in cultured mouse keratinocytes; type: cell-based; conditions: inhibitor 10 μM
Description: Basal keratinocytes were separated from the cornified sheets by filtration through a […] cell strainer. Keratinocytes were plated on collagen I-coated dishes or glass coverslips and grown in EME media (Gibco, Gaithersburg, MD) containing 8% chelex (Bio-rad, Hercules, CA)-treated FBS with the final Ca^2+ adjusted to 0.05 mM, bovine pituitary extract (50 μg/mL), epidermal growth factor (5 ng/mL), and lx antibiotics/antimycotics (Gibco, Gaithersburg, MD) in a humidified incubator with 5% CO2 at 37° C. for 5-7 days until use. To knockdown Trpv4 in isolated keratinocytes from newborn keratinocyte-Trpv4 cKO mice, cells were treated with 4-OH tamoxifen at 500 nM for 72 h.
In vitro and ex vivo Ca^2+ imaging. […] Ca^2+ imaging of cultured cells in response to chemicals was conducted after loading with 5 μM Fura2-AM (Invitrogen, Waltham, MA) for 45 min after a ratiometric Ca^2+-imaging protocol with 340/380-nm blue light for dual excitation. Ratios of emissions were acquired at 0.5 Hz. ΔR/R0 was determined as the fraction of the increase of a given ratio over baseline ratio divided by baseline ratio. […] Control cells received vehicles.

pERK expression = assay: pERK Western blot in cultured human keratinocytes; type: cell-based; conditions: inhibitor 10 μM
Description: Primary human keratinocytes were cultured as previously described (Chen et al. J. Biol. Chem. 2016, 291, 10252-10262). In brief, surgically discarded foreskin samples, obtained from Duke Children's Hospital in accordance to institutionally approved IRB protocol, were incubated with Dispase (Gibco, Gaithersburg, MD, 4 U/mL) for 12-16 h at 4° C. followed by 0.05% trypsin (Gibco, Gaithersburg, MD) for 10-20 min at 37° C. Cells were maintained in keratinocyte serum-free media (Invitrogen, Waltham, MA) with 5% CO2 at 37° C. and used at passage 2-3.
Western Blot. Routine procedures were followed (Chen et al. J. Biol. Chem. 2016, 291, 10252-10262, Chen et al. Pain 2014, 155, 2662-2672). Briefly, cultured keratinocytes and dissected dorsal neck skin (0.5×0.5 cm, the area that received the treatment) were protein-extracted in radioimmunoprecipitation assay (RIPA, Sigma, St. Louis, MO) buffer and electroblotted to polyvinylidene fluoride (PVDF) membranes after gel separation of proteins in a 4-15% polyacrylamide gel (Bio-Rad, Hercules, CA). […] Immunoblot band intensity was quantitated using the software Image J and ERK served as a control for pERK expression.

Chain of rTRPV4 (Q9ERZ8 whole entry): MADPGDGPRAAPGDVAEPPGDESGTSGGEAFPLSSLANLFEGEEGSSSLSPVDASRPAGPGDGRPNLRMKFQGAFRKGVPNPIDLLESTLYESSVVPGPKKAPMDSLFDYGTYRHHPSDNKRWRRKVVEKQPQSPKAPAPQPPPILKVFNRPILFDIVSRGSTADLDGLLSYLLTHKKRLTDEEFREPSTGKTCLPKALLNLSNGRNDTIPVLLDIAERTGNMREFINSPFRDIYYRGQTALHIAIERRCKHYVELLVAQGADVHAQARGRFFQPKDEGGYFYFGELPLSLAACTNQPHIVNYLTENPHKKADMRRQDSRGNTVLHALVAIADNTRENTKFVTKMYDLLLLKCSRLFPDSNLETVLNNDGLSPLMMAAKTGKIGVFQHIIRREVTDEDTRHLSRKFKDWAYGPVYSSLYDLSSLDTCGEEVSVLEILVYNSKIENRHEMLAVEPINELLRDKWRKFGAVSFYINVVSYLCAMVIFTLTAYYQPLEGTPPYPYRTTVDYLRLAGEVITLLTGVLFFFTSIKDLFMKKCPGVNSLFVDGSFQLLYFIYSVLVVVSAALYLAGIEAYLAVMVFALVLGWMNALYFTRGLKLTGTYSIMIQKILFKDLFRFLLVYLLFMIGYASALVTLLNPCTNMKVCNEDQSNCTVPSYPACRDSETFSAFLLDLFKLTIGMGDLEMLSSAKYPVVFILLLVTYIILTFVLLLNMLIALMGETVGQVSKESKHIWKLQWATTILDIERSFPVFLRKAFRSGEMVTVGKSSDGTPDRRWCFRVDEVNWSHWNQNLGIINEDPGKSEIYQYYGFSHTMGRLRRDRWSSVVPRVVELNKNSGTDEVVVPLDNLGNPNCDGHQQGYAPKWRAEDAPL

LPC 18:1
binding of LPC 18:1 to rTRPV4 (rTRPV4): demonstrated binding

N#CC(=C(/N)Sc1ccccc1N)/C(C#N)=C(\N)Sc1ccccc1N [U0126]
effect of U0126 on LPC-induced vesicular release [1]: completely eliminated

Cc1c(C(=O)Nc2cccc(C(F)(F)F)c2)cc(-c2ccccc2)n1CCCN1CCOCC1 [HC067047]
effect on LPA 18:1 (10 μM) induced Ca2+ signal (mouse keratinocytes): remained unchanged
effect on LPC (10 μM) induced Ca2+ signal (mouse keratinocytes): significantly reduced
effect on LPC-increased pERK expression (pERK expression): eliminated the increase; also recorded: abolished
